# Patent publication US9174917B2, “Bexarotene analogs” (Arizona Board of Regents on Behalf of Arizona State …, priority 2010, dated 2015)
# What was measured:
# RXR = settings: from the literature; cited from earlier work
# CTCL cells = assay: DNA microarray gene expression analysis in CTCL cells; format: cell-based, human; settings: 4-hour treatment, versus ethanol vehicle control
# From the text: DNA microarray analysis is a method to assess genome-wide gene expression by simultaneously quantitating mRNA levels from all or a subset of genes in a genome and comparing these levels between a control and an experimental sample. These changes are compared, such as in as wild type versus mutant strains or cells with no treatment compared to cells treated with a reagent. RNA is extracted from the two cell types, and either converted to cDNA or amplified to cRNA, and then this message pool is used to assess gene expression changes. Both pools of labeled message are hybridized to a DNA microarray (or “gene chip”). These microarrays have all genes in the genome spotted onto the array in a precise fashion, such that this chip experiment becomes a genome-wide northern blot, assaying the message levels of all genes in the cells. Since the control and the experimental are hybridized to the same chip, there can be direct comparisons performed between the starting mRNA levels of the two, looking for genes that are under or over expressed in the experimental as compared to the control, analyzing the intensity of the hybridization of both cDNA pools.
# The total RNA will be isolated from human CTCL cells, either untreated or treated with bexarotene or the appropriate analog. The RNA quality and integrity will be tested before hybridization using denaturing gel electrophoresis as well as reverse transcription followed by PCR. Once high quality RNA is isolated, labeled cRNA can be generated with the Genisphere 350 kit. Microarrays are readily available for such tests, for example, human microarrays can be obtained from Washington University St. Louis (Human HEEBO microarrays), or alternatively from the Toronto Microarray Centre (Toronto, Canada).
# CTCL cells were treated bexarotene or ethanol vehicle control and total RNA was extracted after 4-hour treatment using the BioRad Aurum Total RNA Mini kit. Total RNA extracted was utilized to produce cRNA using a Genisphere 350 kit and was used to hybridize human HEEBO microarray slides obtained from GCAT (Genome Consortium for Active Teaching). The Genisphere 350 kit high sensitivity protocol was used and representative results were obtained (data not shown). […] Likewise, there was a 2.9-fold downregulation of REEP, a gene that occurs in a deleted segment of human 5q31 in malignant myeloid diseases; and 2.6-fold downregulation of RAC GAP1, a GTPase activating protein of RAC, a protein required for malignant cell movement106; and 2.5-fold downregulation of karyopherin alpha 1 (importing alpha 5), a protein required for STAT1 import into the nucleus. […]
Structure (SMILES),reported / documented RXR activity (RXR),downregulation of RAC GAP1 (CTCL cells),downregulation of REEP (CTCL cells),downregulation of karyopherin alpha 1 (importing alpha 5) (CTCL cells),upregulation of death associated protein kinase 3 (CTCL cells),upregulation of endothelin converting enzyme 1 (CTCL cells),upregulation of urocortin (CTCL cells)
Cc1cc2c(cc1C1(c3ccc(C(=O)O)cc3)CC1)C(C)(C)CCC2(C)C [Compound 105],"potent, RXR-selective agonists",,,,,,
CC(/C=C/C1(c2cc3c(cc2C)C(C)(C)CCC3(C)C)CC1)=C\C(=O)O [Compound 106],"potent, RXR-selective agonists",,,,,,
C=C(c1ccc(C(=O)O)cc1)c1cc2c(cc1C)C(C)(C)CCC2(C)C [bexarotene],,2.6 fold,2.9 fold,2.5 fold,4.3 fold,4.6 fold,3.5 fold
